Where a name gives a salt, the structure may show the parent alone.

The target of the experiment is T1, human β-Secretase (soluble part, AA1-AA460; sBACE-Fc) (Homo sapiens, UniProt P56817).
T1 construct: The soluble part of the human β-Secretase (AA1-AA460) was cloned into the ASP2-Fc10-1-IRES-GFP-neoK mammalian expression vector; made in house
T1 sequence (P56817 22-460): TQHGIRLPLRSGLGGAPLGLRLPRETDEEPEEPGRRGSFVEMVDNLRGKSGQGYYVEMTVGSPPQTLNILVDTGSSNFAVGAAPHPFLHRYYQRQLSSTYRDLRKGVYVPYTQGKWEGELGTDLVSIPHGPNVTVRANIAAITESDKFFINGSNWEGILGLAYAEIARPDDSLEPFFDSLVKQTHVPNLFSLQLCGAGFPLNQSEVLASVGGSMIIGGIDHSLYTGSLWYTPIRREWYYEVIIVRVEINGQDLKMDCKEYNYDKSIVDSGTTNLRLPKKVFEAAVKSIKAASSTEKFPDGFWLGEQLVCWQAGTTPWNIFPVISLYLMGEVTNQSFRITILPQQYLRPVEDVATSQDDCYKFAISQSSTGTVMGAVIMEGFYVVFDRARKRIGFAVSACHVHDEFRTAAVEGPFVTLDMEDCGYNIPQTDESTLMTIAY
Kind of experiment: TR-FRET assay. To be noted: substrate (Europium)CEVNLDAEFK(Qsy7) 100 nM, pH 4.5, 15 min at RT; read-out: IC50 (nM) in TR-FRET assay. The experiment is classed as biochemical. (In TR-FRET formats the signal depends on donor and acceptor labels being close together.)
On to `COc1ccc(C#N)c(-c2cccc(C3(c4cccc(OS(C)(=O)=O)c4)N=C(N)N(C)C3=O)c2)c1` (stereo not drawn) [Example 176, 3-[2-Amino-4-(2′-cyano-5′-methoxybiphenyl-3-yl)-1-methyl-5-oxo-4,5-dihydro-1H-imidazol-4-yl]phenyl methanesulfonate hydrochloride], for which the IC50 worked out at 148 nM. For the compound `COc1ccc(C#N)c(-c2cc(C3(c4cccc(OS(C)(=O)=O)c4)N=C(N)N(C)C3=O)ccc2F)c1` (stereo not drawn) [Example 177, 3-[2-Amino-4-(2′-cyano-6-fluoro-5′-methoxybiphenyl-3-yl)-1-methyl-5-oxo-4,5-dihydro-1H-imidazol-4-yl]phenyl methanesulfonate hydrochloride], the IC50 worked out at 100 nM.

Regarding `CN1C(=O)C(c2ccc(OS(=O)(=O)c3ccccc3)cc2)(c2ccc(F)c(Br)c2)N=C1N` (stereo not drawn) [Example 184, 4-[2-Amino-4-(3-bromo-4-fluorophenyl)-1-methyl-5-oxo-4,5-dihydro-1H-imidazol-4-yl]phenyl benzenesulfonate], the IC50 turned out to be 156 nM. To `CN1C(=O)C(c2ccc(OS(=O)(=O)c3ccccc3)cc2)(c2ccc(F)c(-c3cncnc3)c2)N=C1N` (stereo not drawn) [Example 185, 4-[2-Amino-4-(4-fluoro-3-pyrimidin-5-ylphenyl)-1-methyl-5-oxo-4,5-dihydro-1H-imidazol-4-yl]phenyl benzenesulfonate hydrochloride] belongs 19 nM. `CN1C(=O)C(c2ccc(OS(=O)(=O)C(F)(F)F)cc2)(c2ccc(F)c(-c3cncs3)c2)N=C1N` (stereo not drawn) [Example 187, 4-{2-Amino-4-[4-fluoro-3-(1,3-thiazol-5-yl)phenyl]-1-methyl-5-oxo-4,5-dihydro-1H-imidazol-4-yl}phenyl trifluoromethanesulfonate hydrochloride]: the IC50 stood at 459 nM. To `CN1C(=O)C(c2ccc(OS(C)(=O)=O)cc2)(c2ccc(F)c(-c3cncs3)c2)N=C1N` (stereo not drawn) [Example 188, 4-{2-Amino-4-[4-fluoro-3-(1,3-thiazol-5-yl)phenyl]-1-methyl-5-oxo-4,5-dihydro-1H-imidazol-4-yl}phenyl methanesulfonate hydrochloride] belongs 379 nM.

In the case of `COc1cc(OS(C)(=O)=O)cc(-c2cc(C3(C4CCOCC4)N=C(N)N(C)C3=O)ccc2F)c1` (stereo not drawn) [Example 192, 5′-[2-Amino-1-methyl-5-oxo-4-(tetrahydro-2H-pyran-4-yl)-4,5-dihydro-1H-imidazol-4-yl]-2′-fluoro-5-methoxybiphenyl-3-yl methanesulfonate hydrochloride], the IC50 came to 1260 nM. Under `CN1C(=O)C(c2ccc(F)c(-c3cc(Cl)cc(OS(C)(=O)=O)c3)c2)(C2CCOCC2)N=C1N` (stereo not drawn) [Example 193, 5′-[2-Amino-1-methyl-5-oxo-4-(tetrahydro-2H-pyran-4-yl)-4,5-dihydro-1H-imidazol-4-yl]-5-chloro-2′-fluorobiphenyl-3-yl methanesulfonate hydrochloride] stands 1180 nM; under `CN1C(=O)C(c2cccc(OS(C)(=O)=O)c2)(c2ccc(F)c(C3=CCCC3)c2)N=C1N` (stereo not drawn) [Example 194, 3-[2-Amino-4-(3-cyclopent-1-en-1-yl-4-fluorophenyl)-1-methyl-5-oxo-4,5-dihydro-1H-imidazol-4-yl]phenyl methanesulfonate hydrochloride], 284 nM; under `CN1C(=O)C(c2cccc(OS(C)(=O)=O)c2)(c2cccc(C3=CCCC3)c2)N=C1N` (stereo not drawn) [Example 195, 3-[2-Amino-4-(3-cyclopent-1-en-1-yl-phenyl)-1-methyl-5-oxo-4,5-dihydro-1H-imidazol-4-yl]phenyl methanesulfonate hydrochloride], 646 nM. As to `CN1C(=O)C(c2cccc(OS(=O)(=O)C(F)(F)F)c2)(c2cccc(C3=CCCC3)c2)N=C1N` (stereo not drawn) [Example 197, 3-[2-Amino-4-(3-cyclopent-1-en-1-ylphenyl)-1-methyl-5-oxo-4,5-dihydro-1H-imidazol-4-yl]phenyl trifluoromethanesulfonate hydrochloride], the IC50 worked out at 721 nM.

As for `CCc1cc(C2(c3ccc(F)c(-c4cc(OC)cc(OS(C)(=O)=O)c4)c3)N=C(N)N(C)C2=O)cc(CC)n1` (stereo not drawn) [Example 209, 5′-[2-Amino-4-(2,6-diethylpyridin-4-yl)-1-methyl-5-oxo-4,5-dihydro-1H-imidazol-4-yl]-2′-fluoro-5-methoxybiphenyl-3-yl methanesulfonate hydrochloride], the IC50 was 99 nM. To `CCc1cc(C2(c3ccc(F)c(-c4cc(Cl)cc(OS(C)(=O)=O)c4)c3)N=C(N)N(C)C2=O)cc(CC)n1` (stereo not drawn) [Example 210, 5′-[2-Amino-4-(2,6-diethylpyridin-4-yl)-1-methyl-5-oxo-4,5-dihydro-1H-imidazol-4-yl]-5-chloro-2′-fluorobiphenyl-3-yl methanesulfonate hydrochloride] belongs 137 nM; to `COc1cc(OS(C)(=O)=O)cc(-c2cc(C3(c4ccnc(C)c4)N=C(N)N(C)C3=O)ccc2F)c1` (stereo not drawn) [Example 211, 5′-[2-Amino-1-methyl-4-(2-methylpyridin-4-yl)-5-oxo-4,5-dihydro-1H-imidazol-4-yl]-2′-fluoro-5-methoxybiphenyl-3-yl methanesulfonate hydrocloride], 104 nM. Under `CN1C(=O)C(c2cccc(OS(=O)(=O)c3c(F)cccc3F)c2)(c2ccc(F)c(Br)c2)N=C1N` (stereo not drawn) [Example 225, 3-[2-Amino-4-(3-bromo-4-fluorophenyl)-1-methyl-5-oxo-4,5-dihydro-1H-imidazol-4-yl]phenyl 2,6-difluorobenzenesulfonate] stands 633 nM; under `CN1C(=O)C(c2cccc(OS(=O)(=O)c3ccccn3)c2)(c2ccc(F)c(Br)c2)N=C1N` (stereo not drawn) [Example 226, 3-[2-Amino-4-(3-bromo-4-fluorophenyl)-1-methyl-5-oxo-4,5-dihydro-1H-imidazol-4-yl]phenyl pyridine-2-sulfonate], 859 nM; under `CN1C(=O)C(c2cccc(OS(=O)(=O)c3ccc(-n4cccn4)cc3)c2)(c2ccc(F)c(Br)c2)N=C1N` (stereo not drawn) [Example 227, 3-[2-Amino-4-(3-bromo-4-fluorophenyl)-1-methyl-5-oxo-4,5-dihydro-1H-imidazol-4-yl]phenyl 4-(1H-pyrazol-1-yl)benzenesulfonate], 1460 nM.

Take `CN1C(=O)C(c2cccc(OS(=O)(=O)c3ccc4c(c3)CCC4)c2)(c2ccc(F)c(Br)c2)N=C1N` (stereo not drawn) [Example 228, 3-[2-Amino-4-(3-bromo-4-fluorophenyl)-1-methyl-5-oxo-4,5-dihydro-1H-imidazol-4-yl]phenyl indane-5-sulfonate]: the IC50 is 788 nM. Under `CN1C(=O)C(c2cccc(OS(=O)(=O)c3ccc4c(c3)oc(=O)n4C)c2)(c2ccc(F)c(Br)c2)N=C1N` (stereo not drawn) [Example 229, 3-[2-Amino-4-(3-bromo-4-fluorophenyl)-1-methyl-5-oxo-4,5-dihydro-1H-imidazol-4-yl]phenyl 3-methyl-2-oxo-2,3-dihydro-1,3-benzoxazole-6-sulfonate] stands 299 nM; under `Cc1nn(C)c(Cl)c1S(=O)(=O)Oc1cccc(C2(c3ccc(F)c(Br)c3)N=C(N)N(C)C2=O)c1` (stereo not drawn) [Example 230, 3-[2-Amino-4-(3-bromo-4-fluorophenyl)-1-methyl-5-oxo-4,5-dihydro-1H-imidazol-4-yl]phenyl 5-chloro-1,3-dimethyl-1H-pyrazole-4-sulfonate], 129 nM; under `CN1C(=O)C(c2cccc(OS(=O)(=O)c3ccc(Cl)s3)c2)(c2ccc(F)c(Br)c2)N=C1N` (stereo not drawn) [Example 231, 3-[2-Amino-4-(3-bromo-4-fluorophenyl)-1-methyl-5-oxo-4,5-dihydro-1H-imidazol-4-yl]phenyl 5-chlorothiophene-2-sulfonate], 859 nM. Under `CN1C(=O)C(c2cccc(OS(=O)(=O)c3cn(C)cn3)c2)(c2ccc(F)c(Br)c2)N=C1N` (stereo not drawn) [Example 232, 3-[2-Amino-4-(3-bromo-4-fluorophenyl)-1-methyl-5-oxo-4,5-dihydro-1H-imidazol-4-yl]phenyl 1-methyl-1H-imidazole-4-sulfonate] stands 594 nM; under `CN1C(=O)C(c2cccc(OS(=O)(=O)c3c(Cl)nc4sccn34)c2)(c2ccc(F)c(Br)c2)N=C1N` (stereo not drawn) [Example 233, 3-[2-Amino-4-(3-bromo-4-fluorophenyl)-1-methyl-5-oxo-4,5-dihydro-1H-imidazol-4-yl]phenyl 6-chloroimidazo[2,1-b][1,3]thiazole-5-sulfonate], 321 nM; under `CCC(C)(C)c1ccc(S(=O)(=O)Oc2cccc(C3(c4ccc(F)c(-c5cncnc5)c4)N=C(N)N(C)C3=O)c2)cc1` (stereo not drawn) [Example 234, 3-[2-Amino-4-(4-fluoro-3-pyrimidin-5-ylphenyl)-1-methyl-5-oxo-4,5-dihydro-1H-imidazol-4-yl]phenyl 4-(1,1-dimethylpropyl)benzenesulfonate], 82 nM. Under `COc1ccc(OC)c(S(=O)(=O)Oc2cccc(C3(c4ccc(F)c(-c5cncnc5)c4)N=C(N)N(C)C3=O)c2)c1` (stereo not drawn) [Example 235, 3-[2-Amino-4-(4-fluoro-3-pyrimidin-5-ylphenyl)-1-methyl-5-oxo-4,5-dihydro-1H-imidazol-4-yl]phenyl 2,5-dimethoxybenzenesulfonate] stands 589 nM; under `CN1C(=O)C(c2cccc(OS(=O)(=O)c3c(F)cccc3F)c2)(c2ccc(F)c(-c3cncnc3)c2)N=C1N` (stereo not drawn) [Example 236, 3-[2-Amino-4-(4-fluoro-3-pyrimidin-5-ylphenyl)-1-methyl-5-oxo-4,5-dihydro-1H-imidazol-4-yl]phenyl 2,6-difluorobenzenesulfonate], 65 nM.

For `CN1C(=O)C(c2cccc(OS(=O)(=O)c3ccccn3)c2)(c2ccc(F)c(-c3cncnc3)c2)N=C1N` (stereo not drawn) [Example 237, 3-[2-Amino-4-(4-fluoro-3-pyrimidin-5-ylphenyl)-1-methyl-5-oxo-4,5-dihydro-1H-imidazol-4-yl]phenyl pyridine-2-sulfonate], the IC50 was determined as 124 nM.

Broadly, the IC50 is the concentration needed to halve the response being measured.

Values taken from US20080176862A1, “New Compounds 617” (ASTRAZENECA AB, priority 2006, published 2008).
